# Experimental data as given in ChEMBL document CHEMBL3352620, “Development of potent antagonists for formyl peptide receptor 1 based on Boc-Phe-D-Leu-Phe-D-Leu-Phe-OH” (Bioorg Med Chem, 2014).
# The source made the active and inactive calls. The calls are words filed in the database; no cut-off is given here. Square brackets hold non-standard residues; d marks the D form. Peptide text beside a SMILES is read from it. * marks the point of attachment. Boc = CC(C)(C)OC(=O)*
# Molecular target: T1, fMet-Leu-Phe receptor (Homo sapiens) (UniProt P21462)
# T1 sequence (whole entry): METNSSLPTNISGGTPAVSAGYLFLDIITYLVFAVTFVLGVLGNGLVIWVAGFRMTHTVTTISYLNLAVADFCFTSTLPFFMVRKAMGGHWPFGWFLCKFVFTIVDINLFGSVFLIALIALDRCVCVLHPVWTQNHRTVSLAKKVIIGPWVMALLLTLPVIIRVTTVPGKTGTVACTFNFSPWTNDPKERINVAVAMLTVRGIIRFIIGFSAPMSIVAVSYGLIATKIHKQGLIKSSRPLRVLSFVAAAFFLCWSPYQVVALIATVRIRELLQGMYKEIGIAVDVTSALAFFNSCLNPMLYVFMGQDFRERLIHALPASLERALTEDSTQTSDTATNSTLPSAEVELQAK
# Assay: Antagonist activity at formyl peptide receptor in human HL60 cells assessed as inhibition of MMK1-induced calcium mobilization at 1 to 10 uM incubated for 5 mins prior to MMk1 challenge by Fura-2 method
# Format: functional, cell-based
# Settings: HL-60
row,SMILES,inhibition
1,CC(C)C[C@@H](NC(=O)[C@H](CC1=CCCCC1)NC(=O)[C@@H](CC(C)C)NC(=O)[C@H](Cc1ccc(C(=O)c2ccccc2)cc1)NC(=O)OC(C)(C)C)C(=O)N[C@@H](Cc1ccccc1)C(=O)O,inactive
2,CC(C)C[C@@H](NC(=O)[C@H](Cc1ccccc1)NC(=O)[C@@H](CC(C)C)NC(=O)[C@H](Cc1ccc(C(=O)c2ccccc2)cc1)NC(=O)OC(C)(C)C)C(=O)N[C@@H](Cc1ccccc1)C(=O)O,inactive

# Molecular target: T2, fMet-Leu-Phe receptor (Homo sapiens, UniProt P21462)
# T2 sequence (P21462 whole entry): T1 sequence (whole entry)
# Assay: Antagonist activity at formyl peptide receptor in human HL60 cells assessed as inhibition of fMLP-induced calcium mobilization incubated for 5 mins prior to fMLP challenge by Fura-2 method
# Settings: not given
row,SMILES,IC50 [nM]
1,CC(C)C[C@@H](NC(=O)[C@H](CC1=CCCCC1)NC(=O)[C@@H](CC(C)C)NC(=O)[C@H](Cc1ccc(C(=O)c2ccccc2)cc1)NC(=O)OC(C)(C)C)C(=O)N[C@@H](Cc1ccccc1)C(=O)O,140
2,CC(C)C[C@@H](NC(=O)[C@H](Cc1ccccc1)NC(=O)[C@@H](CC(C)C)NC(=O)[C@H](Cc1ccc(C(=O)c2ccccc2)cc1)NC(=O)OC(C)(C)C)C(=O)N[C@@H](Cc1ccccc1)C(=O)O,420

# Molecular target: T1, fMet-Leu-Phe receptor (Homo sapiens)
# Assay: Antagonist activity at formyl peptide receptor in human HL60 cells assessed as fMLP EC50 at 1 uM incubated for 5 mins prior to fMLP challenge by Fura-2 method
# Format: cell-based
# Settings: HL-60
row,SMILES,inhibition
1,CC(C)C[C@@H](NC(=O)[C@H](Cc1ccccc1)NC(=O)[C@@H](CC(C)C)NC(=O)[C@H](Cc1ccccc1)NC(=O)OC(C)(C)C)C(=O)N[C@@H](Cc1ccccc1)C(=O)O (Boc-F[dL]F[dL]F-OH),inactive

# Molecular target: T1, fMet-Leu-Phe receptor (Homo sapiens)
# Assay: Agonist activity at formyl peptide receptor in human HL60 cells at 10 uM by Fura-2 method
# Format: cell-based
# Settings: HL-60
row,SMILES,Activity
1,CC(C)C[C@@H](NC(=O)[C@H](C)NC(=O)OC(C)(C)C)C(=O)N[C@@H](Cc1ccccc1)C(=O)N[C@H](CC(C)C)C(=O)N[C@@H](Cc1ccccc1)C(=O)O,inactive
2,CC(C)C[C@@H](NC(=O)[C@H](Cc1ccccc1)NC(=O)[C@@H](CC(C)C)NC(=O)[C@H](Cc1ccccc1)NC(=O)OC(C)(C)C)C(=O)N[C@@H](Cc1ccccc1)C(=O)O (Boc-F[dL]F[dL]F-OH),inactive
3,CC(C)C[C@@H](NC(=O)[C@H](Cc1ccccc1)NC(=O)[C@@H](CC(C)C)NC(=O)[C@H](Cc1ccccc1)NC(=O)OC(C)(C)C)C(=O)N[C@@H](C)C(=O)O,inactive
4,CC(C)C[C@@H](NC(=O)[C@H](C)NC(=O)[C@@H](CC(C)C)NC(=O)[C@H](Cc1ccccc1)NC(=O)OC(C)(C)C)C(=O)N[C@@H](Cc1ccccc1)C(=O)O,inactive
5,CC(C)C[C@@H](NC(=O)[C@H](Cc1ccccc1)NC(=O)OC(C)(C)C)C(=O)N[C@@H](Cc1ccccc1)C(=O)N[C@@H](C)C(=O)N[C@@H](Cc1ccccc1)C(=O)O,inactive
6,CC(C)C[C@@H](NC(=O)[C@H](Cc1ccccc1)NC(=O)[C@H](C)NC(=O)[C@H](Cc1ccccc1)NC(=O)OC(C)(C)C)C(=O)N[C@@H](Cc1ccccc1)C(=O)O,inactive

# Molecular target: T2, fMet-Leu-Phe receptor
# Assay: Antagonist activity at formyl peptide receptor in human HL60 cells assessed as inhibition of intracellular calcium mobilization incubated for 5 mins prior to fMLP challenge by Fura-2 method
# Format: functional, cell-based, HL-60
# Settings: not given
row,SMILES,Kd [nM]
1,CC(C)C[C@H](NC(=O)[C@@H](CC(C)C)NC(=O)[C@H](Cc1ccccc1)NC(=O)OC(C)(C)C)C(=O)N[C@H](CC(C)C)C(=O)N[C@@H](Cc1ccccc1)C(=O)O,200
2,CC(C)C[C@@H](NC(=O)[C@H](C)NC(=O)OC(C)(C)C)C(=O)N[C@@H](Cc1ccccc1)C(=O)N[C@H](CC(C)C)C(=O)N[C@@H](Cc1ccccc1)C(=O)O,170
3,CSCC[C@H](NC(=O)[C@@H](CC(C)C)NC(=O)[C@H](Cc1ccccc1)NC(=O)OC(C)(C)C)C(=O)N[C@H](CC(C)C)C(=O)N[C@@H](Cc1ccccc1)C(=O)O,130
4,CC(C)C[C@H](NC(=O)[C@@H](CC(C)C)NC(=O)[C@H](Cc1ccccc1)NC(=O)[C@@H](CC(C)C)NC(=O)[C@H](Cc1ccccc1)NC(=O)OC(C)(C)C)C(=O)O,130
5,CC(C)C[C@@H](NC(=O)[C@H](Cc1ccccc1)NC(=O)[C@@H](CC(C)C)NC(=O)[C@H](Cc1ccccc1)NC(=O)OC(C)(C)C)C(=O)N[C@@H](COC(C)(C)C)C(=O)O,180
6,CC(C)C[C@@H](NC(=O)[C@H](Cc1ccccc1)NC(=O)[C@@H](CC(C)C)NC(=O)[C@H](Cc1ccccc1)NC(=O)OC(C)(C)C)C(=O)N[C@@H](Cc1cn(C(=O)OC(C)(C)C)c2ccccc12)C(=O)O,120
7,CC(C)C[C@@H](NC(=O)[C@H](Cc1ccccc1)NC(=O)[C@@H](CC(C)C)NC(=O)[C@H](Cc1ccccc1)NC(=O)OC(C)(C)C)C(=O)N[C@@H](CC1CCCCC1)C(=O)O,77
8,CC(C)C[C@@H](NC(=O)[C@H](Cc1ccc(C(=O)c2ccccc2)cc1)NC(=O)[C@@H](CC(C)C)NC(=O)[C@H](Cc1ccccc1)NC(=O)OC(C)(C)C)C(=O)N[C@@H](Cc1ccccc1)C(=O)O,150
9,CC(C)C[C@@H](NC(=O)[C@H](Cc1ccccc1)NC(=O)[C@@H](CC(C)C)NC(=O)[C@@H](NC(=O)OC(C)(C)C)[C@@H](C)OC(C)(C)C)C(=O)N[C@@H](Cc1ccccc1)C(=O)O,140
10,CC(C)C[C@@H](NC(=O)[C@H](CCCCNC(=O)OC(C)(C)C)NC(=O)[C@@H](CC(C)C)NC(=O)[C@H](Cc1ccccc1)NC(=O)OC(C)(C)C)C(=O)N[C@@H](Cc1ccccc1)C(=O)O,> 1000
11,CC(C)C[C@@H](NC(=O)[C@H](Cc1ccccc1)NC(=O)[C@@H](CC(C)C)NC(=O)[C@H](Cc1ccc(OC(C)(C)C)cc1)NC(=O)OC(C)(C)C)C(=O)N[C@@H](Cc1ccccc1)C(=O)O,62
12,CC(C)C[C@@H](NC(=O)[C@H](Cc1ccccc1)NC(=O)[C@@H](CC(C)C)NC(=O)[C@H](CCCCNC(=O)c1ccccc1)NC(=O)OC(C)(C)C)C(=O)N[C@@H](Cc1ccccc1)C(=O)O,140
13,CC(C)C[C@@H](NC(=O)[C@H](Cc1ccccc1)NC(=O)[C@@H](CC(C)C)NC(=O)[C@H](Cc1cn(C(=O)OC(C)(C)C)c2ccccc12)NC(=O)OC(C)(C)C)C(=O)N[C@@H](Cc1ccccc1)C(=O)O,69
14,CC(C)C[C@@H](NC(=O)[C@H](Cc1ccccc1)NC(=O)OC(C)(C)C)C(=O)N[C@@H](Cc1ccccc1)C(=O)N[C@H](CC(C)C)C(=O)N[C@H](C(=O)O)C(C)C,260
15,CC(C)C[C@@H](NC(=O)[C@H](Cc1ccccc1)NC(=O)[C@@H](CC(C)C)NC(=O)[C@H](CCCCNC(=O)C1CCCCC1)NC(=O)OC(C)(C)C)C(=O)N[C@@H](Cc1ccccc1)C(=O)O,150
16,CC(C)C[C@@H](NC(=O)[C@H](CC1=CCCCC1)NC(=O)[C@@H](CC(C)C)NC(=O)[C@H](Cc1ccc(C(=O)c2ccccc2)cc1)NC(=O)OC(C)(C)C)C(=O)N[C@@H](Cc1ccccc1)C(=O)O,2.1
17,CC(C)C[C@@H](NC(=O)[C@H](Cc1ccccc1)NC(=O)[C@@H](CC(C)C)NC(=O)[C@H](Cc1ccccc1)NC(=O)OC(C)(C)C)C(=O)N[C@@H](Cc1ccc(C(=O)c2ccccc2)cc1)C(=O)O,150
18,CC(C)C[C@@H](NC(=O)[C@H](Cc1ccccc1)NC(=O)[C@@H](CC(C)C)NC(=O)[C@H](CCCCN)NC(=O)OC(C)(C)C)C(=O)N[C@@H](Cc1ccccc1)C(=O)O,730
19,CC(C)C[C@@H](NC(=O)[C@H](Cc1ccccc1)NC(=O)[C@@H](CC(C)C)NC(=O)[C@H](COC(C)(C)C)NC(=O)OC(C)(C)C)C(=O)N[C@@H](Cc1ccccc1)C(=O)O,100

row,SMILES,Kd [nM]
1,CC(C)C[C@@H](NC(=O)[C@H](Cc1ccccc1)NC(=O)[C@@H](CC(C)C)NC(=O)[C@H](CC1CCCCC1)NC(=O)OC(C)(C)C)C(=O)N[C@@H](Cc1ccccc1)C(=O)O,66
2,CC(C)C[C@@H](NC(=O)[C@H](CC1CCCCC1)NC(=O)[C@@H](CC(C)C)NC(=O)[C@H](Cc1ccccc1)NC(=O)OC(C)(C)C)C(=O)N[C@@H](Cc1ccccc1)C(=O)O,25
3,CC(C)C[C@@H](NC(=O)[C@H](CC(=O)OC(C)(C)C)NC(=O)[C@@H](CC(C)C)NC(=O)[C@H](Cc1ccccc1)NC(=O)OC(C)(C)C)C(=O)N[C@@H](Cc1ccccc1)C(=O)O,510
4,CC(C)C[C@@H](NC(=O)[C@H](Cc1ccccc1)NC(=O)OC(C)(C)C)C(=O)N[C@H](C(=O)N[C@H](CC(C)C)C(=O)N[C@@H](Cc1ccccc1)C(=O)O)[C@@H](C)OC(C)(C)C,830
5,CC(C)C[C@@H](NC(=O)[C@H](Cc1ccccc1)NC(=O)[C@@H](CC(C)C)NC(=O)[C@H](Cc1ccccc1)NC(=O)OC(C)(C)C)C(=O)N[C@@H](Cc1ccc(OC(C)(C)C)cc1)C(=O)O,68
6,CC(C)C[C@@H](NC(=O)[C@H](Cc1ccccc1)NC(=O)OC(C)(C)C)C(=O)N[C@@H](Cc1ccccc1)C(=O)N[C@H](CC(C)C)C(=O)N[C@H](C(=O)O)[C@@H](C)OC(C)(C)C,130
7,CC(C)C[C@@H](NC(=O)[C@H](Cc1ccccc1)NC(=O)[C@@H](CC(C)C)NC(=O)[C@H](Cc1ccc(Cl)cc1)NC(=O)OC(C)(C)C)C(=O)N[C@@H](Cc1ccccc1)C(=O)O,75
8,CC(C)C[C@@H](NC(=O)[C@H](Cc1ccccc1)NC(=O)[C@@H](CC(C)C)NC(=O)[C@H](Cc1ccccc1)NC(=O)OC(C)(C)C)C(=O)N[C@@H](C)C(=O)O,350
9,CC(C)C[C@H](NC(=O)OC(C)(C)C)C(=O)N[C@H](CC(C)C)C(=O)N[C@@H](Cc1ccccc1)C(=O)N[C@H](CC(C)C)C(=O)N[C@@H](Cc1ccccc1)C(=O)O,200
10,CC(C)C[C@@H](NC(=O)[C@H](C)NC(=O)[C@@H](CC(C)C)NC(=O)[C@H](Cc1ccccc1)NC(=O)OC(C)(C)C)C(=O)N[C@@H](Cc1ccccc1)C(=O)O,280
11,CC(C)C[C@@H](NC(=O)[C@H](Cc1ccccc1)NC(=O)[C@@H](CC(C)C)NC(=O)[C@H](Cc1cn(C=O)c2ccccc12)NC(=O)OC(C)(C)C)C(=O)N[C@@H](Cc1ccccc1)C(=O)O,90
12,CC(C)C[C@@H](NC(=O)[C@H](Cc1ccccc1)NC(=O)OC(C)(C)C)C(=O)N[C@@H](Cc1ccccc1)C(=O)N[C@@H](C)C(=O)N[C@@H](Cc1ccccc1)C(=O)O,420
13,CC(C)C[C@@H](NC(=O)[C@H](CC1=CCCCC1)NC(=O)[C@@H](CC(C)C)NC(=O)[C@H](Cc1ccc(C(=O)c2ccccc2)cc1)NC(=O)OC(C)(C)C)C(=O)N[C@@H](CC1CCCCC1)C(=O)O,6.9
14,CC(C)C[C@@H](NC(=O)[C@H](Cc1ccccc1)NC(=O)[C@@H](CC(C)C)NC(=O)[C@H](Cc1ccccc1)NC(=O)OC(C)(C)C)C(=O)N[C@@H](Cc1c[nH]c2ccccc12)C(=O)O,150
15,CC(C)C[C@@H](NC(=O)[C@H](Cc1ccccc1)NC(=O)OC(C)(C)C)C(=O)N[C@H](C(=O)N[C@H](CC(C)C)C(=O)N[C@@H](Cc1ccccc1)C(=O)O)C(C)C,> 1000
16,CC(C)C[C@@H](NC(=O)[C@H](Cc1ccccc1)NC(=O)[C@@H](CC(C)C)NC(=O)[C@H](Cc1ccc(C(=O)c2ccccc2)cc1)NC(=O)OC(C)(C)C)C(=O)N[C@@H](Cc1ccccc1)C(=O)O,16
17,CC(C)C[C@@H](NC(=O)[C@H](Cc1ccccc1)NC(=O)[C@@H](CC(C)C)NC(=O)[C@H](Cc1c[nH]c2ccccc12)NC(=O)OC(C)(C)C)C(=O)N[C@@H](Cc1ccccc1)C(=O)O,190
18,CC(C)C[C@@H](NC(=O)[C@H](Cc1ccccc1)NC(=O)[C@H](C)NC(=O)[C@H](Cc1ccccc1)NC(=O)OC(C)(C)C)C(=O)N[C@@H](Cc1ccccc1)C(=O)O,260
